Data from PubChem BioAssay AID1918998 (Molecular Pharmacology Branch, DTP, NCI, 2023).

Test system: 521955-158-R2-J5-PDC complex spheroid growth
Assay: Anticancer human tumor 521955-158-R2-J5-PDC patient-derived pancreatic carcinoma cell line growth inhibition [AhR]
Details: for IC50: curve of first compound; for viability, T/C: stronger effect = lower value
Summary of the method: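 Agents were dosed in half-log steps down from roughly clinical Cmax, or from 10 microM where Cmax was unknown, alone and with AhR antagonists. Read-out: percent test/control growth of tumor spheroids containing HUVEC and MSC stromal cells.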
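Throughout, for viability, T/C: spheroids mix tumor cells with HUVEC endothelium and human MSC stroma; luminescence taken as viability surrogate after a week of drug exposure.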

CC1(C)CCC(CN2CCN(c3ccc(C(=O)NS(=O)(=O)c4ccc(NCC5CCOCC5)c([N+](=O)[O-])c4)c(Oc4cnc5[nH]ccc5c4)c3)CC2)=C(c2ccc(Cl)cc2)C1 + CC(CO)NC(=O)c1cc(-c2ccc(Cl)cc2)nn(-c2cnn(C)c2)c1=O
IC50 (second compound 0.1 µM): > 10 µM
IC50 (second compound 0.316 µM): > 10 µM
IC50 (second compound 1 µM): > 10 µM
IC50 (second compound 3.16 µM): > 10 µM
IC50 (second compound 10 µM): > 10 µM
viability, T/C (second compound 0.1 µM, first compound 0.0316 µM): 103%
viability, T/C (second compound 0.1 µM, first compound 0.1 µM): 125%
viability, T/C (second compound 0.1 µM, first compound 0.316 µM): 92.1%
viability, T/C (second compound 0.1 µM, first compound 1 µM): 92.7%
viability, T/C (second compound 0.1 µM, first compound 3.16 µM): 98%
viability, T/C (second compound 0.1 µM, first compound 10 µM): 67.3%
viability, T/C (second compound 0.316 µM, first compound 0.0316 µM): 115%
viability, T/C (second compound 0.316 µM, first compound 0.1 µM): 111%
viability, T/C (second compound 0.316 µM, first compound 0.316 µM): 124%
viability, T/C (second compound 0.316 µM, first compound 1 µM): 100%
viability, T/C (second compound 0.316 µM, first compound 3.16 µM): 111%
viability, T/C (second compound 0.316 µM, first compound 10 µM): 67.7%
viability, T/C (second compound 1 µM, first compound 0.0316 µM): 93.1%
viability, T/C (second compound 1 µM, first compound 0.1 µM): 105%
viability, T/C (second compound 1 µM, first compound 0.316 µM): 122%
viability, T/C (second compound 1 µM, first compound 1 µM): 138%
viability, T/C (second compound 1 µM, first compound 3.16 µM): 124%
viability, T/C (second compound 1 µM, first compound 10 µM): 56%
viability, T/C (second compound 3.16 µM, first compound 0.0316 µM): 123%
viability, T/C (second compound 3.16 µM, first compound 0.1 µM): 99.1%
viability, T/C (second compound 3.16 µM, first compound 0.316 µM): 113%
viability, T/C (second compound 3.16 µM, first compound 1 µM): 113%
viability, T/C (second compound 3.16 µM, first compound 3.16 µM): 108%
viability, T/C (second compound 3.16 µM, first compound 10 µM): 61.9%
viability, T/C (second compound 10 µM, first compound 0.0316 µM): 90.2%
viability, T/C (second compound 10 µM, first compound 0.1 µM): 120%
viability, T/C (second compound 10 µM, first compound 0.316 µM): 109%
viability, T/C (second compound 10 µM, first compound 1 µM): 92.8%
viability, T/C (second compound 10 µM, first compound 3.16 µM): 95.1%
viability, T/C (second compound 10 µM, first compound 10 µM): 63.7%

CCN(c1cc(-c2ccc(CN3CCOCC3)cc2)cc(C(=O)NCc2c(C)cc(C)[nH]c2=O)c1C)C1CCOCC1 + CC(CO)NC(=O)c1cc(-c2ccc(Cl)cc2)nn(-c2cnn(C)c2)c1=O
IC50 (second compound 0.1 µM): > 3 µM
IC50 (second compound 0.316 µM): > 3 µM
IC50 (second compound 1 µM): > 3 µM
IC50 (second compound 3.16 µM): > 3 µM
IC50 (second compound 10 µM): > 3 µM
viability, T/C (second compound 0.1 µM, first compound 0.00949 µM): 121%
viability, T/C (second compound 0.1 µM, first compound 0.03 µM): 110%
viability, T/C (second compound 0.1 µM, first compound 0.0949 µM): 102%
viability, T/C (second compound 0.1 µM, first compound 0.3 µM): 80.8%
viability, T/C (second compound 0.1 µM, first compound 0.949 µM): 81.1%
viability, T/C (second compound 0.1 µM, first compound 3 µM): 102%
viability, T/C (second compound 0.316 µM, first compound 0.00949 µM): 103%
viability, T/C (second compound 0.316 µM, first compound 0.03 µM): 103%
viability, T/C (second compound 0.316 µM, first compound 0.0949 µM): 97.4%
viability, T/C (second compound 0.316 µM, first compound 0.3 µM): 101%
viability, T/C (second compound 0.316 µM, first compound 0.949 µM): 87.6%
viability, T/C (second compound 0.316 µM, first compound 3 µM): 86.5%
viability, T/C (second compound 1 µM, first compound 0.00949 µM): 105%
viability, T/C (second compound 1 µM, first compound 0.03 µM): 93.7%
viability, T/C (second compound 1 µM, first compound 0.0949 µM): 129%
viability, T/C (second compound 1 µM, first compound 0.3 µM): 94.5%
viability, T/C (second compound 1 µM, first compound 0.949 µM): 72.5%
viability, T/C (second compound 1 µM, first compound 3 µM): 82.6%
viability, T/C (second compound 3.16 µM, first compound 0.00949 µM): 90.6%
viability, T/C (second compound 3.16 µM, first compound 0.03 µM): 79.3%
viability, T/C (second compound 3.16 µM, first compound 0.0949 µM): 99.1%
viability, T/C (second compound 3.16 µM, first compound 0.3 µM): 86.7%
viability, T/C (second compound 3.16 µM, first compound 0.949 µM): 74%
viability, T/C (second compound 3.16 µM, first compound 3 µM): 91%
viability, T/C (second compound 10 µM, first compound 0.00949 µM): 91%
viability, T/C (second compound 10 µM, first compound 0.03 µM): 96.8%
viability, T/C (second compound 10 µM, first compound 0.0949 µM): 84.9%
viability, T/C (second compound 10 µM, first compound 0.3 µM): 77.4%
viability, T/C (second compound 10 µM, first compound 0.949 µM): 74.4%
viability, T/C (second compound 10 µM, first compound 3 µM): 60.7%
